Reference: patent US9056874B2, “Complement pathway modulators and uses thereof” (NOVARTIS AG, priority 2012, dated 2015)

Target: factor B (Homo sapiens, UniProt P00751)
Experiment: factor B inhibition assay of Biological Example 1
Assay type: biochemical
Parameters: CVF-Bb complex prepared from purified cobra venom factor (1 μM), recombinant human complement factor B; made in house; host or cells: drosophila cells (factor B); E. coli (factor D used to form the complex)
Details: IC50 (nM), assay of Biological Example 1 (Table 1)

factor B, sequence (P00751 260-764 limits assumed): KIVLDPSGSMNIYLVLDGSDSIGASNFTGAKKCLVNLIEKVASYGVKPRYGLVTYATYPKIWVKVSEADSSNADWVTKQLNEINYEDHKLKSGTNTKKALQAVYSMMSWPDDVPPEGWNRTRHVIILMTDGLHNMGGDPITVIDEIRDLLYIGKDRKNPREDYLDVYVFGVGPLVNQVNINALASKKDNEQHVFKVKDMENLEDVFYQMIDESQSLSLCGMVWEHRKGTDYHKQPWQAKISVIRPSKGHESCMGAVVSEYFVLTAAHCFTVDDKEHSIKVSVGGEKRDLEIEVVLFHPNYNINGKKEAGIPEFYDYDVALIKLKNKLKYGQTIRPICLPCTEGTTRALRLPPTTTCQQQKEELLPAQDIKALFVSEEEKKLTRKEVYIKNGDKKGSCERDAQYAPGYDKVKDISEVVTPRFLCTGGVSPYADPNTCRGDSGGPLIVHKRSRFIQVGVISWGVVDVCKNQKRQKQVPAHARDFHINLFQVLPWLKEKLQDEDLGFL
factor B, sequence (Q91132 23-649 partner limits assumed): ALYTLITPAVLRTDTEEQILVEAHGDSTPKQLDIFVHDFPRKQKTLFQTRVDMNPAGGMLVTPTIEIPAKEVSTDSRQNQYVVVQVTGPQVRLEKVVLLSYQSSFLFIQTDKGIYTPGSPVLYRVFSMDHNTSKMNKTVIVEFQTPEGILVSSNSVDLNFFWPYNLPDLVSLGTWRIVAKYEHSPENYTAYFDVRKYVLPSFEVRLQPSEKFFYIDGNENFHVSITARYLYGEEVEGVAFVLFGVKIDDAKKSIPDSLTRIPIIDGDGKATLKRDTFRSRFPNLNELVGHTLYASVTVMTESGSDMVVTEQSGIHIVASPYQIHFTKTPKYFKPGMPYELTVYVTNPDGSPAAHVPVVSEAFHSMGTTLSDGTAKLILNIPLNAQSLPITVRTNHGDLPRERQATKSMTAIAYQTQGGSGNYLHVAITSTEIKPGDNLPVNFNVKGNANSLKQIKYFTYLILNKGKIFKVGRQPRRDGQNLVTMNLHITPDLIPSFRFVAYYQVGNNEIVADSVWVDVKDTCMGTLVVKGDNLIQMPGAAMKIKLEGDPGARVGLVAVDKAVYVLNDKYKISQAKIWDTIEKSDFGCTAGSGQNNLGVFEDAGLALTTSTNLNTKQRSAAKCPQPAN
factor B, sequence (Q91132 733-984 partner limits assumed): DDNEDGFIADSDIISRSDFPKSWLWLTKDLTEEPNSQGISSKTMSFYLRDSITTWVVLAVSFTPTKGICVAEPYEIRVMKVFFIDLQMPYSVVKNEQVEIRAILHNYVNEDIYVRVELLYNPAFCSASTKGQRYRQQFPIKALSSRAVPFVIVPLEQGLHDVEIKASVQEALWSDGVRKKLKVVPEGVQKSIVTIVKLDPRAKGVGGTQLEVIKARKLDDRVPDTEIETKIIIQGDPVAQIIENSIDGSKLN
factor B, sequence (Q91132 1264-1642 partner limits assumed): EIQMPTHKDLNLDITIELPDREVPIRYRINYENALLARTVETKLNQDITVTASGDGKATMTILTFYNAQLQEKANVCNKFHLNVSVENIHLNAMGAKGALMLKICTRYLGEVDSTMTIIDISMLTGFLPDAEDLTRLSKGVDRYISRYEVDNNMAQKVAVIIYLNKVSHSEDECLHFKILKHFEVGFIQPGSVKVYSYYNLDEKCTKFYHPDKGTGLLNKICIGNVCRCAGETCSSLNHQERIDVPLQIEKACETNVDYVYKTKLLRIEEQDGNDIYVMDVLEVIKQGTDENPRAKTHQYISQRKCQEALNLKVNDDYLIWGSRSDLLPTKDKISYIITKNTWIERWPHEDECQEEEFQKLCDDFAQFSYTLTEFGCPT

Compound | IC50
CCc1cc(C)c2[nH]ccc2c1C(O)(c1nc2cc(C#N)ccc2[nH]1)C(F)(F)F (single isomer, unassigned; (-)) [80-C b) (−), (−)-2-(1-(5-ethyl-7-methyl-1H-indol-4-yl)-2,2,2-trifluoro-1-hydroxyethyl)-1H-benzo[d]imidazole-5-carbonitrile] | 10 nM
Cc1cc(C)c2[nH]ccc2c1C(O)(c1nc2cc(C#N)ccc2[nH]1)C(F)(F)F (single isomer, unassigned; (-)) [80-D b) (−), (−)-2-(1-(5,7-dimethyl-1H-indol-4-yl)-2,2,2-trifluoro-1-hydroxyethyl)-1H-benzo[d]imidazole-5-carbonitrile] | 70 nM
Cc1cc(C2CC2)c(C(O)(c2nc3cc(C#N)ccc3[nH]2)C(F)(F)F)c2cc[nH]c12 (single isomer, unassigned; (-)) [80-E b) (−), (−)-2-(1-(5-cyclopropyl-7-methyl-1H-indol-4-yl)-2,2,2-trifluoro-1-hydroxyethyl)-1H-benzo[d]imidazole-5-carbonitrile] | 10 nM
Cc1cc(C(C)C)c(C(O)(c2nc3cc(C#N)ccc3[nH]2)C(F)(F)F)c2cc[nH]c12 (single isomer, unassigned; (-)) [80-F b) (−), (−)-2-(2,2,2-trifluoro-1-hydroxy-1-(5-isopropyl-7-methyl-1H-indol-4-yl)ethyl)-1H-benzo[d]imidazole-5-carbonitrile] | 20 nM
COC(C)(c1nc2cc(C#N)ccc2[nH]1)c1c(C)cc(C)c2[nH]ccc12 (single isomer, unassigned; (-)) [84-B b) (−), (−)-2-(1-(5,7-dimethyl-1H-indol-4-yl)-1-methoxyethyl)-1H-benzo[d]imidazole-5-carbonitrile] | 50 nM
CCc1cc(C)c2[nH]ccc2c1C(C)(OC)c1nc2cc(C#N)ccc2[nH]1 (single isomer, unassigned; (-)) [84-C b) (−), (−)-2-(1-(5-ethyl-7-methyl-1H-indol-4-yl)-1-methoxyethyl)-1H-benzo[d]imidazole-5-carbonitrile] | 10 nM
CCc1cc(C)c2[nH]ccc2c1C(OC)(c1nc2cc(C#N)ccc2[nH]1)C(F)(F)F (single isomer, unassigned; (-)) [84-D b) (−), (−)-2-(1-(5-ethyl-7-methyl-1H-indol-4-yl)-2,2,2-trifluoro-1-methoxyethyl)-1H-benzo[d]imidazole-5-carbonitrile] | 8 nM
COC(C)(c1nc2cc(C#N)ccc2[nH]1)c1c(CC(C)C)cc(C)c2[nH]ccc12 (single isomer, unassigned; (-)) [84-E b) (−), (−)-2-(1-(5-isobutyl-7-methyl-1H-indol-4-yl)-1-methoxyethyl)-1H-benzo[d]imidazole-5-carbonitrile] | 260 nM
Cc1cc(C)c2[nH]ccc2c1C(N)c1nc2ccc(C#N)cc2[nH]1 (single isomer, unassigned; (-)) [95-B b) (−), (−)-2-(amino(5,7-dimethyl-1H-indol-4-yl)methyl)benzo[d]imidazole-5-carbonitrile] | 480 nM
CCc1cc(C)c2[nH]ccc2c1C(N)c1nc2cc(C#N)ccc2[nH]1 (single isomer, unassigned; (-)) [96-C b) (−), (−)-2-(amino(5-ethyl-7-methyl-1H-indol-4-yl)methyl)-1H-benzo[d]imidazole-5-carbonitrile] | 70 nM
CCc1cc(C)c2[nH]ccc2c1C(C)(N)c1nc2cc(C#N)ccc2[nH]1 (single isomer, unassigned; (-)) [102-C b) (−), (−)-2-(1-amino-1-(5-ethyl-7-methyl-1H-indol-4-yl)ethyl)-1H-benzo[d]imidazole-5-carbonitrile] | 10 nM
Cc1cc(C2CC2)c(C(C)(N)c2nc3cc(C#N)ccc3[nH]2)c2cc[nH]c12 (single isomer, unassigned; (-)) [102-D b) (−), (−)-2-(1-amino-1-(5-cyclopropyl-7-methyl-1H-indol-4-yl)ethyl)-1H-benzo[d]imidazole-5-carbonitrile] | 8 nM
Cc1cc(Br)c(C(N)(c2nc3cc(C#N)ccc3[nH]2)C(F)(F)F)c2cc[nH]c12 (single isomer, unassigned; (-)) [105-B b) (−), (−)-2-(1-amino-1-(5-bromo-7-methyl-1H-indol-4-yl)-2,2,2-trifluoroethyl)-1H-benzo[d]imidazole-5-carbonitrile] | 20 nM
CNC(c1nc2cc(C#N)ccc2[nH]1)(c1c(Br)cc(C)c2[nH]ccc12)C(F)(F)F (single isomer, unassigned; (-)) [106 b) (−), (−)-2-(1-(5-bromo-7-methyl-1H-indol-4-yl)-2,2,2-trifluoro-1-(methylamino)ethyl)-1H-benzo[d]imidazole-5-carbonitrile] | 8 nM
CCc1cc(C)c2[nH]ccc2c1C(NC)(c1nc2cc(C#N)ccc2[nH]1)C(F)(F)F (single isomer, unassigned; (-)) [107-B b) (−), (−)-2-(1-(5-ethyl-7-methyl-1H-indol-4-yl)-2,2,2-trifluoro-1-(methylamino)ethyl)-1H-benzo[d]imidazole-5-carbonitrile] | 3 nM
CCc1cc(C)c2[nH]ccc2c1C(N)(c1nc2cc(C#N)ccc2[nH]1)C(F)(F)F (single isomer, unassigned; (-)) [107-C b) (−), (−)-2-(1-amino-1-(5-ethyl-7-methyl-1H-indol-4-yl)-2,2,2-trifluoroethyl)-1H-benzo[d]imidazole-5-carbonitrile] | 30 nM
Cc1cc(C2CC2)c(C(N)(c2nc3cc(C#N)ccc3[nH]2)C(F)(F)F)c2cc[nH]c12 (single isomer, unassigned; (-)) [107-D b) (−), (−)-2-(1-amino-1-(5-cyclopropyl-7-methyl-1H-indol-4-yl)-2,2,2-trifluoroethyl)-1H-benzo[d]imidazole-5-carbonitrile] | 8 nM
CNC(c1nc2cc(C#N)ccc2[nH]1)(c1c(C2CC2)cc(C)c2[nH]ccc12)C(F)(F)F (single isomer, unassigned; (-)) [107-E b) (−), (−)-2-(1-(5-cyclopropyl-7-methyl-1H-indol-4-yl)-2,2,2-trifluoro-1-(methylamino)ethyl)-1H-benzo[d]imidazole-5-carbonitrile] | 3 nM
COc1cc(C)c2c(c1C(C)(OC)c1nc3cc(C#N)ccc3[nH]1)CCN2 (single isomer, unassigned; (-)) [124 b) (−), (−)-2-(1-methoxy-1-(5-methoxy-7-methylindolin-4-yl)ethyl)-1H-benzo[d]imidazole-5-carbonitrile] | 11 nM

Compound | IC50
COc1cc(C)c2[nH]ccc2c1C(O)c1nc2cc(C#N)ccc2o1 (single isomer, unassigned; (-)) [125-B b) (−), (−)-2-(hydroxy(5-methoxy-7-methyl-1H-indol-4-yl)methyl)benzo[d]oxazole-5-carbonitrile] | 3 nM
COc1cc(C)c2[nH]ccc2c1C(O)(c1nc2cc(C#N)ccc2o1)C(F)(F)F (single isomer, unassigned; (-)) [128-B b) (−), (−)-2-(2,2,2-trifluoro-1-hydroxy-1-(5-methoxy-7-methyl-1H-indol-4-yl)ethyl)benzo[d]oxazole-5-carbonitrile] | 3 nM
COc1cc(C)c2[nH]ccc2c1C(C)(N)c1nc2cc(C#N)ccc2o1 (single isomer, unassigned; (-)) [131-B b) (−), (−)-2-(1-amino-1-(5-methoxy-7-methyl-1H-indol-4-yl)ethyl)benzo[d]oxazole-5-carbonitrile] | 52 nM
CCc1cc(C)c2[nH]cc(C#N)c2c1C(OC)c1nc2cc(C#N)ccc2[nH]1 (single isomer, unassigned; (-)) [Example 91, (−)-2-((3-Cyano-5-ethyl-7-methyl-1H-indol-4-yl)(methoxy)methyl)-1H-benzo[d]imidazole-5-carbonitrile] | 420 nM
Cc1cc(C)c2[nH]ccc2c1C(O)(c1nc2cc(C#N)ccc2[nH]1)C1CC1 (centres unmarked) [79-H a)] | 110 nM
Cc1cc(C(C)C)c(C(C)(N)c2nc3cc(C#N)ccc3[nH]2)c2cc[nH]c12 (centres unmarked) [102-E a)] | 60 nM
COc1cc(C)c2[nH]ccc2c1Cc1nc2cc(C#N)ccc2[nH]1 [Example 20-C, 2-((5-Methoxy-7-methyl-1H-indol-4-yl)methyl)-1H-benzo[d]imidazole-5-carbonitrile] | 60 nM
[2H]C([2H])([2H])Oc1cc(C)c2[nH]ccc2c1Cc1nc2cc(C#N)ccc2[nH]1 [Example 20-D] | 80 nM
Cc1cc(OC(C)C)c(Cc2nc3cc(C#N)ccc3[nH]2)c2cc[nH]c12 [Example 20-E] | 670 nM
COCCOc1cc(C)c2[nH]ccc2c1Cc1nc2cc(C#N)ccc2[nH]1 [Example 20-F] | 5570 nM
COc1cc(C)c2[nH]ccc2c1Cc1nc2cc(C#N)ccc2o1 [Example 20-G] | 120 nM
COc1cc(C)c2[nH]ccc2c1Cc1nc2ccc(C#N)cc2o1 [Example 20-H] | 4370 nM
COc1cc(F)c2[nH]ccc2c1Cc1nc2cc(C#N)ccc2[nH]1 [Example 21-B, 2-((7-Fluoro-5-methoxy-1H-indol-4-yl)methyl)-1H-benzo[d]imidazole-5-carbonitrile] | 3140 nM
[2H]C([2H])([2H])Oc1cc(Cl)c2[nH]ccc2c1Cc1nc2cc(C#N)ccc2[nH]1 [Example 22, 2-((7-Chloro-5-(^2H3)methoxy-1H-indol-4-yl)methyl)-1H-benzo[d]imidazole-5-carbonitrile] | 1140 nM
[2H]C([2H])([2H])Oc1cc(Cl)c2[nH]ccc2c1C(O)c1nc2cc(C#N)ccc2[nH]1 (centres unmarked) [Example 24-E] | 1110 nM
COc1cc(C)c2[nH]ccc2c1C(=O)c1nc2cc(C#N)ccc2[nH]1 [Example 25-B, 2-(5-Methoxy-7-methyl-1H-indole-4-carbonyl)-1H-benzo[d]imidazole-5-carbonitrile] | 810 nM
COC(C)(c1nc2cc(C#N)ccc2[nH]1)c1c(OC(C)C)cc(C)c2[nH]ccc12 (centres unmarked) [Example 27-C] | 90 nM
COc1cc(C)c2[nH]ccc2c1C(OC)(c1nc2cc(C#N)ccc2[nH]1)C1CC1 (centres unmarked) [Example 27-D] | 20 nM
Cc1cc(OC(C)C)c(C(O)(c2nc3cc(C#N)ccc3[nH]2)C(F)(F)F)c2cc[nH]c12 (centres unmarked) [Example 33-D] | 310 nM
